For assay [1], the system named is CD-1 mice. The assay is described as follows: Drag test (number of steps). The format is in vivo, mouse.
A further assay has as its target T1, mouse CB1 receptors (Mus musculus, UniProt P47746).
T1 construct: membranes from the mouse brain and spleen were used, respectively; from tissue
The assay is described as follows: [3H]-CP-55,940 competition binding, mouse brain (cortex) membranes. Here is the method:
Following excision from mice, tissues were suspended in 50 mM Tris HCl, pH 7.4, at 4 °C. The mouse brain and spleen tissues were homogenized with a Polytron and subsequently centrifuged for 10 min at 2000× g. The resulting supernatants were filtered and centrifuged for 20 min at 40,000× g, and the pellets were used for competition binding experiments.
Competition binding experiments were carried out by incubating 0.5 nM [3H]-CP-55,940 (Perkin Elmer Life and Analytical Sciences, Waltham, MA, USA) and different concentrations of the tested compounds for 90 or 60 min at 30 °C for CB1 or CB2 receptors, respectively. […] Non-specific binding was determined in the presence of 1 μM WIN 55,212-2 [92]. Bound and free radioactivity were separated by filtering the assay mixture through Whatman GF/C glass fiber filters using a Brandel cell harvester (Brandel Instruments, Unterföhring, Germany). The filter-bound radioactivity was counted using a Packard Tri Carb 2810 TR scintillation counter (Perkin Elmer Life and Analytical Sciences, Waltham, MA, USA).
The protein concentration was determined according to a Bio-Rad method with bovine serum albumin as a reference standard. Inhibitory binding constants, Ki, were calculated from the IC50 values according to the Cheng and Prusoff equation:Ki = IC50/(1 + [C*]/KD*) where [C*] is the concentration of the radioligand and KD* its dissociation constant. […]

In assay [2] the test system is CD-1 mice. The assay is described as follows: Visual object response test. The assay is classed as in vivo, mouse.
Assay [3] concerns the target T2, human CB2 receptors (Homo sapiens, UniProt P34972).
T2 construct: host or cells: CHO cells
Put plainly: Cyclic AMP assay (forskolin-stimulated) in CHO cells transfected with human CB2 receptors. The format is cell-based.
Procedure: CHO cells transfected with human CB1 or CB2 receptors were washed with PBS, detached with trypsin, and centrifuged for 10 min at 200× g.
Functional experiments were analyzed by non-linear regression analysis using the equation for a sigmoid concentration–response curve (GraphPad Prism, San Diego, CA, USA). All the data are expressed as the mean ± SEM of three independent experiments.

Assay [4] addresses T2, human CB2 receptors. Put plainly: [3H]-CP-55,940 competition binding, CHO cell membranes transfected with human CB2 receptors. The procedure:
To obtain membranes, cells were washed with phosphate-buffered saline (PBS) and scraped off with ice-cold hypotonic buffer (5 mM Tris HCl, 2 mM EDTA, pH 7.4). The cell suspension was homogenized with a Polytron and then centrifuged for 30 min at 40,000× g. The membrane pellet was suspended in 50 mM Tris HCl buffer (pH 7.4) containing 2.5 mM ethylenediaminetetraacetic acid (EDTA), 5 mM MgCl2, and 0.5 mg/mL bovine serum albumin (BSA) for CB1 receptors or in 50 mM Tris HCl (pH 7.4), 1 mM EDTA, 5 mM MgCl2, and 0.5% BSA for CB2 receptors.
For human cannabinoid receptors, membranes obtained from CHO cells transfected with human CB1 or CB2 receptors (2 µg protein/100 µL) were used. […] Bound and free radioactivity were separated by filtering the assay mixture through Whatman GF/C glass fiber filters using a Brandel cell harvester (Brandel Instruments, Unterföhring, Germany).
The protein concentration was determined according to a Bio-Rad method with bovine serum albumin as a reference standard. Inhibitory binding constants, Ki, were calculated from the IC50 values according to the Cheng and Prusoff equation:Ki = IC50/(1 + [C*]/KD*) where [C*] is the concentration of the radioligand and KD* its dissociation constant. Functional experiments were analyzed by non-linear regression analysis using the equation for a sigmoid concentration–response curve (GraphPad Prism, San Diego, CA, USA). […]

The subject of assay [5] is CD-1 mice. Also on record: method as in PMID 25769232, PMID 25987201. The following applies: ED50 + SEM, data elaborated from ref [33],[34]; cited from earlier work.
Another assay concerns the target T3, mouse CB2 receptors (Mus musculus, UniProt P47936).
T3 construct: membranes from the mouse brain and spleen were used, respectively; from tissue; host or cells: mouse spleen membranes, CD-1 mice
On the set-up: method as in PMID 27527584, PMID 25769232. The following applies: read-out: Mouse Spleen Membranes CB2 Ki; [3H]-CP-55,940 competition binding; mean ± SEM; data elaborated from ref [15],[33]; cited from earlier work.

For assay [6], the system named is CD-1 mice. Also on record: method as in PMID 25769232, PMID 25987201. As to conditions: ED50 + SEM, data elaborated from ref [33],[34]; cited from earlier work. The source holds these as a separate data set.

This is an account of results in paper PMC9318133 (International Journal of Molecular Sciences, 2022).

T2 sequence (P34972 whole entry): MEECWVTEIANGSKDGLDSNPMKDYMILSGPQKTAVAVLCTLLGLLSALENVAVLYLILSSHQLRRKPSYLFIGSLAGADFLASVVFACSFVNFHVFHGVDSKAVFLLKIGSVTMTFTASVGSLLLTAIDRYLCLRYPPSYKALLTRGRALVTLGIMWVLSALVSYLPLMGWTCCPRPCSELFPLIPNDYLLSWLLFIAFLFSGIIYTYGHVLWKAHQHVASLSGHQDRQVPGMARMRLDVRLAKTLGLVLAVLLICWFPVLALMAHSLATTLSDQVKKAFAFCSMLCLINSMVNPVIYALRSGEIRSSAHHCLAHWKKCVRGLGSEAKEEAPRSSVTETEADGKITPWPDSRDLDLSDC
T1 sequence (P47746 whole entry): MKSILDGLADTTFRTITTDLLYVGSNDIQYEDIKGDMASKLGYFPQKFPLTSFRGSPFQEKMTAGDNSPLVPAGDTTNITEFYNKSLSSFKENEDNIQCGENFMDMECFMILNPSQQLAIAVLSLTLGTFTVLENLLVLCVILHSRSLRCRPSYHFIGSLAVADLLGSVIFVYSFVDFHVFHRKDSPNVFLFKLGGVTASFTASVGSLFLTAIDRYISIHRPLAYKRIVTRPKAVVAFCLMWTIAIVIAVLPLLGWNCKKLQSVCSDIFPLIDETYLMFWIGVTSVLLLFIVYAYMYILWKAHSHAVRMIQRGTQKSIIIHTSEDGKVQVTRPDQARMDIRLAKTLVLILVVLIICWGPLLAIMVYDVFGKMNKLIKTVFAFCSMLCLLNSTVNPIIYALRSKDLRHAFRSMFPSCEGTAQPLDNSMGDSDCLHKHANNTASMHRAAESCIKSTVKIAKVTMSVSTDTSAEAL
T3 sequence (P47936 whole entry): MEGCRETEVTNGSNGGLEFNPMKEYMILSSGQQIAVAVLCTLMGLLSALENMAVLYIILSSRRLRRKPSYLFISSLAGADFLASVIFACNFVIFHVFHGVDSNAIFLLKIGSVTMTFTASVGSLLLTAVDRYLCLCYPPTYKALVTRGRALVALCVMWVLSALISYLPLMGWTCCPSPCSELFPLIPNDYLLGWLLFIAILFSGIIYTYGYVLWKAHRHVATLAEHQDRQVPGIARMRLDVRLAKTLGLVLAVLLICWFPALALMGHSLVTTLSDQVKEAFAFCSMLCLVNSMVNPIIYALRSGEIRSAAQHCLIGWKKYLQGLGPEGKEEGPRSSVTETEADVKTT

Turning to `CCCCCn1cc(Cc2cccc3ccccc23)c2ccccc21` [JWH-175, 3-(1-naphthalenylmethyl)-1-pentyl-1H-indole], in the assay with CD-1 mice [1] (0.1 mg/kg i.p., lasted up to 280 min), the “effect on motor activity in the drag test at low dose” value is on record as “facilitated”. Further, the “effect on motor activity in the drag test at higher doses” value with CD-1 mice [1] (6–30 mg/kg i.p.) is “inhibited”. For the same compound, the ED50 with CD-1 mice [1] (Mus musculus, ip, mice, ED50 + SEM, calculated on inhibitory effect of the highest doses) is 10.9 ± 0.12 mg/kg; in the assay with CD-1 mice [2] (Mus musculus, ip, mice, ED50 + SEM, non-linear regression), 9.6 ± 0.02 mg/kg. Moreover, the Ki on mouse CB1 receptors was 33.6 ± 2.4 nM; on human CB2 receptors [4] it was 363 ± 31 nM. Further, the “effect on visual object response” value in the assay on CD-1 mice [2] (0.01–30 mg/kg i.p., monitored over 5 h) is listed as “dose-dependently reduced the visual object response”. The compound also showed an IC50 on human CB2 receptors [3] of 864 ± 61 nM.
Turning to `CCCCCn1cc(C(=O)c2cccc3ccccc23)c2ccccc21` [JWH-018, 1-naphthalenyl(1-pentyl-1H-indol-3-yl)-methanone], in the assay with CD-1 mice [5], the “ED50 Visual Placing” value is reported as 0.7 ± 0.06 mg/kg. Moreover, the inhibition constant Ki on mouse CB2 receptors is 7.13 ± 0.53 nM. Moreover, in the assay on CD-1 mice [6], the “ED50 Core Temperature” value is on record as 1.7 ± 0.04 mg/kg.
